Measured values as given in patent publication US20070167490A1, “Imino ether derivative compounds and drugs containing the compounds as the active ingredient” (Ono Pharmaceutical Co Ltd, priority 2003, published 2007).

Row | SMILES | melting point
1 | CC/C(=N\OCCOc1cccc(CC(=O)O)c1)c1ccc(-c2cccs2)cc1 [14(30), (3-{2-[({(1E)-1-[4-(2-thienyl)phenyl]propylidene}amino)oxy]ethoxy}phenyl)acetic acid] | 117 to 120 °C
2 | CC/C(=N\OCCOc1cccc(CC(=O)O)c1)c1ccc(-n2cccn2)cc1 [14(35), (3-{2-[({(1E)-1-[4-(1H-pyrazol-1-yl)phenyl]propylidene}amino)oxy]ethoxy}phenyl)acetic acid] | 143.5 to 147 °C
